Assay results taken from patent EP4778933A1 (Chengdu Hyperway Pharmaceuticals Co., Ltd., priority 2023, dated 2025).
Read-outs that look alike come from different tables or passages of the source.

Tested on: KRAS G12D-mediated ERK phosphorylation
Experiment: Inhibition of KRAS G12D-mediated ERK phosphorylation in AGS cells (in-cell pERK/GAPDH immunofluorescence)
Format: cell-based
Procedure: Day 1: AGS cells, SW480 cells, NCI H358 cells, HCT116 cells, and KP2 cells were seeded into 384-well cell culture plates and cultured overnight in a 37°C, 5% CO2 incubator.
Day 2: The compounds were added to the plates using Echo550 and incubated for 3 h in a 37°C, 5% CO2 incubator. Then, cells fixed with paraformaldehyde, permeated with methanol and blocked with a blocking solution were added. Finally, a mixed solution of primary antibodies (rabbit anti pERK, mouse anti GAPDH) was added, and the mixture was incubated overnight at 4°C.
Day 3: The mixed solution of primary antibodies was discarded, and a mixed solution of secondary antibodies (goat anti rabbit 800 CW, goat anti mouse 680 RD) was added. The resulting mixture was incubated at room temperature in the dark. Finally, the cell culture plate was washed with PBST, and then inverted for 1 minute of centrifugation. The fluorescence signal values were read with Odyssey CLx.
ERK phosphorylation was calculated according to the following formula: [formula] • Negative control: DMSO • Positive control: 10 µM Reference • IC50 value was fitted and calculated by XLFit 5.0 using the parametric formula. • Y = Bottom+(Top-Bottom)/(1+10^((LogIC50-X)*HillSlope)) • X: log value of compound concentration. • Y: average value of relative expression of p-ERK between replicate wells.

[1] = AGS cells, 3 h incubation, read-out: Inhibitory activity on ERK phosphorylation (IC50) AGS-G12D
[2] = Homo sapiens, AGS, 3 h, AGS cells, 3 h incubation, read-out: Inhibitory activity on ERK phosphorylation (IC50) AGS-G12D
[3] = Homo sapiens, AGS, 3 h, read-out: Inhibitory activity on ERK phosphorylation (IC50) AGS-G12D, AGS cells, 3 h incubation

IC50 [1] [nM] | IC50 [2] [nM] | SMILES | also measured
– | – | CC1(O)COCCN(c2nc(OCC34CCCN3C(c3cc(F)c(F)c(F)c3)CC4)nc3c(F)c(-c4cccc5sc(N)c(C#N)c45)c(Br)cc23)C1 (single isomer, unassigned) [Example 24, 2-amino-4-[6-bromo-8-fluoro-4-(6-hydroxy-6-methyl-1,4-oxazepan-4-yl)-2-({[3-(3,4,5-trifluoropheny 1)-2,3,5,6,7,7a-hexahydro-1H-pyrrolizin-7a-yl]methyl}oxy)quinazolin-7-yl]benzo[b]thiophene-3-carb onitrile] | IC50 (AGS cells, 3 h incubation): 106 nM
– | – | CC1(O)COCCN(c2nc(OCC34CCCN3C(c3cc(F)c(F)c(F)c3)CC4)nc3c(F)c(-c4cccc5sc(N)c(C#N)c45)c(Br)cc23)C1 (single isomer, unassigned) [Example 25, 2-amino-4-[6-bromo-8-fluoro-4-(6-hydroxy-6-methyl-1,4-oxazepan-4-yl)-2-({[3-(3,4,5-trifluoropheny 1)-2,3,5,6,7,7a-hexahydro-1H-pyrrolizin-7a-yl]methyl}oxy)quinazolin-7-yl]benzo[b]thiophene-3-carb onitrile] | IC50 (AGS cells, 3 h incubation): > 1000 nM
> 1000 | – | CC1(O)COCCN(c2nc(OCC34CCCN3C(c3cc(F)c(F)c(F)c3)CC4)nc3c(F)c(-c4cccc5sc(N)c(C#N)c45)c(Cl)cc23)C1 (single isomer, unassigned) [Example 20, 2-amino-4-[6-chloro-8-fluoro-4-(6-hydroxy-6-methyl-1,4-oxazepan-4-yl)-2-({[3-(3,4,5-trifluorophenyl)-2,3,5,6,7,7a-hexahydro-1H-pyrrolizin-7a-yl]methyl}oxy)quinazolin-7-yl]benzo[b]thiophene-3-carbonitrile] | –
– | 67 | N#Cc1c(N)sc2cccc(-c3c(Cl)cc4c(N5CCNOCC5)nc(OCC56CCCN5C(c5cc(F)c(F)c(F)c5)CC6)nc4c3F)c12 (single isomer, unassigned) [Example 34, 2-amino-4-[6-chloro-8-fluoro-4-(1,2,5-oxadiazepan-5-yl)-2-({[3-(3,4,5-trifluorophenyl)-2,3,5,6,7,7a-hexahydro-1H-pyrrolizin-7a-yl]methyl}oxy)quinazolin-7-yl]benzo[b]thiophene-3-carbonitrile] | –
– | > 1000 | CC1=NOC2(CCCN(c3nc(OCC45CCCN4C(c4cc(F)c(F)c(F)c4)CC5)nc4c(F)c(-c5ccc(F)c6sc(N)c(C#N)c56)c(Cl)cc34)CC2)C1 (racemic) [Example 3, 2-amino-4-[6-chloro-8-fluoro-4-(3-methyl-2,8-diaza-1-oxaspiro[4.6]undec-2-en-8-yl)-2-({[3-(3,4,5-trifluorophenyl)-2,3,5,6,7,7a-hexahydro-1H-pyrrolizin-7a-yl]methyl}oxy)quinazolin-7-yl]-7-fl uorobenzo[b]thiophene-3-carbonitrile] | –
– | > 1000 | COC1CCN(c2nc(OCC34CCCN3C(c3cc(F)c(F)c(F)c3)CC4)nc3c(F)c(-c4ccc(F)c5sc(N)c(C#N)c45)c(N)cc23)C1 (racemic) [Example 15, 2-amino-4-[6-amino-8-fluoro-4-(3-methoxytetrahydro-1H-pyrrol-1-yl)-2-({[3-(3,4,5-trifluor ophenyl)-2,3,5,6,7,7a-hexahydro-1H-pyrrolizin-7a-yl]methyl}oxy)quinazolin-7-yl]-7-fluorobenzo[b]t hiophene-3-carbonitrile] | –
33 | – | CC1(O)COCCN(c2nc(OCC34CCCN3C(c3cc(F)c(F)c(F)c3)CC4)nc3c(F)c(-c4cccc5sc(N)c(C#N)c45)c(I)cc23)C1 (single isomer, unassigned) [Example 29, 2-amino-4-[6-iodo-8-fluoro-4-(6-hydroxy-6-methyl-1,4-oxazepan-4-yl)-2-({[3-(3,4,5-trifluorophenyl)-2,3,5,6,7,7a-hexahydro-1H-pyrrolizin-7a-yl]methyl}oxy)quinazolin-7-yl]benzo[b]thiophene-3-carbonitrile] | –
24 | – | CC1(O)COCCN(c2nc(OCC34CCCN3C(c3cc(F)c(F)c(F)c3)CC4)nc3c(F)c(-c4cccc5sc(N)c(C#N)c45)c(I)cc23)C1 (single isomer, unassigned) [Example 32, 2-amino-4-[6-iodo-8-fluoro-4-(6-hydroxy-6-methyl-1,4-oxazepan-4-yl)-2-({[3-(3,4,5-trifluorophenyl)-2,3,5,6,7,7a-hexahydro-1H-pyrrolizin-7a-yl]methyl}oxy)quinazolin-7-yl]benzo[b]thiophene-3-carbonitrile] | –
– | – | CC1(O)COCCN(c2nc(OCC34CCCN3C(c3cc(F)c(F)c(F)c3)CC4)nc3c(F)c(-c4cccc5sc(N)c(C#N)c45)c(P(C)(C)=O)cc23)C1 (single isomer, unassigned) [Example 33, 2-amino-4-{6-[dimethyl(oxo)-15-methylphosphino]-8-fluoro-4-(6-hydroxy-6-methyl-1,4-oxazepan-4-yl)-2-({[3-(3,4,5-trifluorophenyl)-2,3,5,6,7,7a-hexahydro-1H-pyrrolizin-7a-yl]methyl}oxy)quinazolin-7-yl}benzo[b]thiophene-3-carbonitrile] | IC50 [3]: 196 nM
– | – | N#Cc1c(N)sc2c(F)ccc(-c3c(Cl)cc4c(N5CCC6(CC5)CC(O)CO6)nc(OCC56CCCN5C(c5cc(F)c(F)c(F)c5)CC6)nc4c3F)c12 (racemic) [Example 14, 8-[7-(2-amino-7-fluorobenzo[b]thiophen-4-yl)-6-chloro-8-fluoro-2-({[3-(3,4,5-trifluorophenyl)-2,3,5,6,7,7a-hexahydro-1H-pyrrolizin-7a-yl]methyl}oxy)quinazolin-4-yl]-8-aza-1-oxaspiro[4.5]de c-3-ol] | IC50 [3]: 758 nM
– | 313 | N#Cc1c(N)sc2c(F)ccc(-c3c(Cl)cc4c(N5CCCC(O)(C(F)(F)F)CC5)nc(OCC56CCCC5C(c5cc(F)c(F)c(F)c5)CC6)nc4c3F)c12 (racemic) [Example 5, 2-amino-4-{6-chloro-8-fluoro-4-[4-hydroxy-4-(trifluoromethyl)azepan-1-yl]-2-({[1-(3,4,5-trifluorophenyl)octahydrocyclopenta[1,2-a][5]annulen-3a-yl]methyl}oxy)quinazolin-7-yl}-7-fluorobenzo[b]thiop hene-3-carbonitrile] | –
– | – | N#Cc1c(N)sc2c(F)ccc(-c3c(Cl)cc4c(N5CC6C[C@@H](C5)c5cccc(=O)n5C6)nc(OCC56CCCN5C(c5cc(F)c(F)c(F)c5)CC6)nc4c3F)c12 (mixture of isomers) [Example 7, 2-amino-4-{6-chloro-8-fluoro-4-[(1S)-6-oxo-7,11-diazatricyclo[7.3.1.02,7]trideca-2(3),4-dien-11-yl]-2-({[3-(3,4,5-trifluorophenyl)-2,3,5,6,7,7a-hexahydro-1H-pyrrolizin-7a-yl]methyl}oxy)quinazolin-7-yl}-7-fluorobenzo[b]thiophene-3-carbonitrile] | IC50 (Homo sapiens, AGS cells, 3 h incubation, read-out: Inhibitory activity on ERK phosphorylation (IC50) AGS-G12D): 738 nM
> 1000 | – | CC1(O)COCCN(c2nc(OCC34CCCN3C(c3cc(F)c(F)c(F)c3)CC4)nc3c(F)c(-c4cccc5sc(N)c(C#N)c45)c(Cl)cc23)C1 (single isomer, unassigned) [Example 19, 2-amino-4-[6-chloro-8-fluoro-4-(6-hydroxy-6-methyl-1,4-oxazepan-4-yl)-2-({[3-(3,4,5-trifluorophenyl)-2,3,5,6,7,7a-hexahydro-1H-pyrrolizin-7a-yl]methyl}oxy)quinazolin-7-yl]benzo[b]thiophene-3-carbonitrile] | –
